Experiment [1] has as its system Salmonella typhimurium ATCC 13311. Put plainly: Growth in inoculated milk at 12° C., plate count. The format is cell-based. As to conditions: non-fat milk; for CFU/ml, day 0: 0 days; for CFU/ml, day 2: 2 days; for CFU/ml, day 4: 4 days; for CFU/ml, day 6: 6 days. How it is done:
Stock cultures of Salmonella typhimurium ATCC 13311 and Escherichia coli O157:H7 ATCC 700728 which were used to inoculate liquid cultures were routinely kept on agar plates containing brain heart infusion (Oxoid CM225, Basingstoke, United Kingdom) fortified with 1.5% agar. […] Just prior to the inoculation of the foods the cultures were diluted with a solution containing 0.1% peptone and 0.85% NaCl.
Sterile non-fat milk was obtained from a local supermarket. Appropriate quantities of amino acids were added.
Milk was cooled to 10° C. and subsequently inoculated with an appropriately diluted culture of Salmonella typhimurium. Inoculated milk samples were incubated at 12° C.
The microbial analysis of the food samples was done as follows: A sealing bag was opened and to this were added 2 times the net weight of sterile dilution fluid ([…] and 0.1% (w/v) bacteriological peptone). Samples were homogenized for 1 min in a Stomacher 400 lab blender (Seward Medical, London, England) and 50 μl of the homogenate were plated on a suitable agar medium using an Eddyjet type 1.23 spiral plater (IUL Instruments, Barcelona, Spain). Escherichia coli 0157:H7 and Salmonella typhimurium were plated on VRBG agar (Oxoid, CM0485, Basingstoke, United Kingdom). Plates were incubated for 24 hours at 30° C. and then counted.
The effect of single additions of glycine, DL-alanine and a mixture of glycine (0.67%) and DL-alanine (0.8%) on the growth of Salmonella typhimurium in milk at 12° C. is given in Table I: […]

Experiment [2] concerns Salmonella enterica (ATCC 13311). As to conditions: broth cultures, to a concentration of 100 mM, single amino acid.

SMILES strings stand for the structures.

In the case of `CC(N)C(=O)O` (racemic) [DL-alanine], in experiment [1], the “CFU/ml, day 0” value is 5 · 10^3 CFU/ml; the “CFU/ml, day 2” value is given as 5 · 10^4 CFU/ml; the “CFU/ml, day 4” value was 4 · 10^5 CFU/ml; the “CFU/ml, day 6” value was 1 · 10^5 CFU/ml. Also, the “effect on the growth rate of Salmonella typhimurium” value in experiment [2] is reported as “little or no effect”.
For `NCC(=O)O` [glycine] the same measures were 5 · 10^3 CFU/ml, 5 · 10^4 CFU/ml, 1 · 10^5 CFU/ml, 8 · 10^4 CFU/ml and “little or no effect”.
